Here are results for nine molecules from patent publication US8546582B2, “Sulfenamide, vulcanization accelerator containing the sulfenamide for rubber, and process for producing the vulcanization accelerator” (Ouchi Shinko Chemical Industrial Co., Ltd., priority 2007, dated 2013).

Molecules are shown by their SMILES. Where “and” joins values, the source holds several entries; their conditions need not be identical. Equal values may be shown once.

As a reminder, the melting point is the temperature, or range, at which the solid turns liquid.

For data set [1] the following is noted: stated in TRGS552 (non-patent document 3); cited from earlier work.
Another data set concerns fish and shellfish. The conditions noted are these: Official Bulletin of Economy, Trade and Industry, Dec. 22, 2005; cited from earlier work.
Data set [2] is described as follows: 1-octanol/water distribution coefficient by high-performance liquid chromatography (JIS Z7260-117). The class given is physicochemical. The conditions noted are these: HPLC. Here is the method: For N-methyl-N-t-butylbenzothiazole-2-sulfenamide (BMBS) synthesized in Example 1, N-ethyl-N-t-butylbenzothiazole-2-sulfenamide (BEBS) synthesized in Example 2, N-n-propyl-N-t-butylbenzothiazole-2-sulfenamide (BPBS) synthesized in Example 3, N-n-butyl-N-t-butylbenzothiazole-2-sulfenamide (BBBS) synthesized in Example 4, and N,N-dicyclohexylbenzothiazole-2-sulfenamide (DCBS) which is a conventional compound, the 1-octanol/water distribution coefficient was measured by high-performance liquid chromatography according to JIS Z7260-117.

The next data set concerns microorganisms. The conditions noted are these: safety checks of existing chemical substances; cited from earlier work.
A further data set relates to carp. The data set is described as follows: test on the degree of bioconcentration of a chemical substance in the body of fish and shellfish. The class given is in vivo. The settings on record: for Concentration ratio (times), average / Concentration ratio (times): carp; for Concentration ratio (times): single values. The protocol:
For BEBS synthesized in Example 2, a test on the degree of bioconcentration of a chemical substance in the body of fish and shellfish was carried out according to “Shinki Kagaku Busshitsu To Nikakaru Shiken No Hoho Nitsuite (Circular on Test Methods of New Chemical Substances)” (Yakushokuhatsu No. 1121002 dated Nov. 21, 2003, Seikyoku No. 2 dated on Nov. 13, 2003, Kanhokihatsu No. 03121002).
Test bioconcentration: First bioconcentration area 1 μg/L • Second bioconcentration area 0.1 μg/L
Exposure duration: 22 days
Exposure method: Continuous flow-through
Analytical method: High-performance liquid chromatography

Setting [3] is: first concentration area 1 μg/L, after 14 days.
Where [4] appears, read: first concentration area 1 μg/L, after 22 days.
Where [5] appears, read: second concentration area 0.1 μg/L, after 14 days.
Where [6] appears, read: second concentration area 0.1 μg/L, after 22 days.

As for `CN(N=O)C(C)(C)C` [N-nitroso-N-methyl-t-butylamine], the carcinogenicity entry in data set [1] is “not carcinogenic”.

In the case of `CCCCN(N=O)C(C)(C)C` [N-nitroso-N-n-butyl-t-butylamine], in data set [1], the carcinogenicity entry is “not carcinogenic”.

Take `c1ccc2sc(SN(C3CCCCC3)C3CCCCC3)nc2c1` [DCBS, N,N-dicyclohexylbenzothiazole-2-sulfenamide]: in the data set with fish and shellfish, the “concentration ratio (BCFSS)” value is given as 6000 times. Also, the chromatographic logP in data set [2] (read-out: logPow) amounted to 7.4. Besides, the degradability entry with microorganisms is “hardly degradable”.

With `CCCN(Sc1nc2ccccc2s1)C(C)(C)C` [BPBS, N-n-propyl-N-t-butylbenzothiazole-2-sulfenamide], the melting point was in the range of 55 to 56 °C.

`CN(Sc1nc2ccccc2s1)C(C)(C)C` [BMBS, N-methyl-N-t-butyl benzothiazole-2-sulfenamide] showed a logPow in data set [2] of 4.5.

With `O=NN(C1CCCCC1)C1CCCCC1` [N-nitrosodicyclohexylamine], the carcinogenicity entry in data set [1] is listed as “not carcinogenic”.

With `CCN(Sc1nc2ccccc2s1)C(C)(C)C` [BEBS, N-ethyl-N-t-butylbenzothiazole-2-sulfenamide], the “Concentration ratio (times), average” value in the data set with carp (setting [3]) came out at 180 times; with carp (setting [4]), 170 times; in the data set with carp (setting [5]), 180 times; in the data set on carp (setting [6]), 160 times. The “Concentration ratio (times)” value in the data set on carp (setting [3]) was 120 times and 240 times; in the data set on carp (setting [4]), 180 times and 170 times; in the data set with carp (setting [5]), 180 times and 190 times; in the data set with carp (setting [6]), 180 times and 130 times. In the data set with carp (preliminary test, in 22 days), this molecule gave a bioaccumulation or bioconcentration of 180 times.

Regarding `CCN(N=O)C(C)(C)C` [N-nitroso-N-ethyl-t-butylamine], the carcinogenicity result in data set [1] is “not carcinogenic”.

On to `CCCCN(Sc1nc2ccccc2s1)C(C)(C)C` [BBBS, N-n-butyl-N-t-butylbenzothiazole-2-sulfenamide], for which the melting point lay within 55 to 56 °C.
